One experiment has as its system HepG2. Description: Cytotoxicity against human HepG2 cells assessed as cell death after 48 hrs by Cell Titer-Glo assay. It is filed as cell-based. To be noted: HepG2, 48 h.
Another experiment has as its system Plasmodium falciparum. Description: Antiplasmodial activity against Plasmodium falciparum 3D7 infected in human O positive erythrocyte after 72 hrs. Format: functional, organism-based. To be noted: 3D7, 72 h.
The target in another experiment is Beta-secretase 1 (Homo sapiens, UniProt P56817). In words: Inhibition of human BACE1 assessed as cleavage of TRF substrate.
The target in experiment [1] is Plasmepsin V (Plasmodium falciparum (isolate 3D7)) (UniProt Q8I6Z5). In words: Inhibition of plasmepsin V in Plasmodium falciparum trophozoite expressing PfEMP3-GFP infected erythrocyte assessed as PEXEL processing at 20 uM by immunoblotting analysis.
The target of a further experiment is Cathepsin D (Homo sapiens, UniProt P07339). Description: Inhibition of human cathepsin D assessed as cleavage of wtKAHRP fluorogenic substrate.
Experiment [2] deals with Plasmepsin V (Plasmodium falciparum (isolate 3D7), UniProt Q8I6Z5). Description: Inhibition of Plasmodium falciparum plasmepsin V assessed as cleavage of wtKAHRP fluorogenic substrate.
Experiment [3] concerns the target Plasmepsin V (Plasmodium falciparum (isolate 3D7)) (UniProt Q8I6Z5). In words: Inhibition of Plasmodium falciparum plasmepsin V assessed as cleavage of wtKAHRP fluorogenic substrate at 1 uM.
For experiment [4], the target named is Plasmepsin V (Plasmodium vivax, UniProt A0A0H4FQ60). In words: Inhibition of Plasmodium vivax plasmepsin V by fluorogenic PEXEL cleavage assay.
Experiment [5] deals with Plasmepsin V (Plasmodium vivax) (UniProt A0A0H4FQ60). Description: Inhibition of Plasmodium vivax plasmepsin V at 1 uM by fluorogenic PEXEL cleavage assay.

“And” between values parts separate entries of the source, which are not always exact repeats. Identical values can stand only once. Square brackets hold non-standard residues; d marks the D form. Peptide text beside a SMILES is read from it. * marks the point of attachment. Sta = CC(C)C[C@H](N)[C@@H](O)CC(=O)O; NHPhenethyl = c1ccc(CCN*)cc1; Cbz = O=C(OCc1ccccc1)*; NHBn = c1ccc(CN*)cc1

Sequence of Cathepsin D (P07339 65-162 limits assumed): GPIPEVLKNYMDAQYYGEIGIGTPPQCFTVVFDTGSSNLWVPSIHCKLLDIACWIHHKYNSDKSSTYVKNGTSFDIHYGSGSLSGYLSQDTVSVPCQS
Sequence of Cathepsin D (P07339 169-412 limits assumed): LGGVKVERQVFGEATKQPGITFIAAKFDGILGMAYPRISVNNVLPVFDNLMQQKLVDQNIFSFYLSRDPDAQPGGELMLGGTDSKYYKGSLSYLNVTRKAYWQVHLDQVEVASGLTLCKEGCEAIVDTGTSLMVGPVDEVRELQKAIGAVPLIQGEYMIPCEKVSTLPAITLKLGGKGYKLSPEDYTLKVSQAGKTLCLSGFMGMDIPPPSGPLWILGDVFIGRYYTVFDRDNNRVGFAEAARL
Sequence of Beta-secretase 1 (P56817 whole entry): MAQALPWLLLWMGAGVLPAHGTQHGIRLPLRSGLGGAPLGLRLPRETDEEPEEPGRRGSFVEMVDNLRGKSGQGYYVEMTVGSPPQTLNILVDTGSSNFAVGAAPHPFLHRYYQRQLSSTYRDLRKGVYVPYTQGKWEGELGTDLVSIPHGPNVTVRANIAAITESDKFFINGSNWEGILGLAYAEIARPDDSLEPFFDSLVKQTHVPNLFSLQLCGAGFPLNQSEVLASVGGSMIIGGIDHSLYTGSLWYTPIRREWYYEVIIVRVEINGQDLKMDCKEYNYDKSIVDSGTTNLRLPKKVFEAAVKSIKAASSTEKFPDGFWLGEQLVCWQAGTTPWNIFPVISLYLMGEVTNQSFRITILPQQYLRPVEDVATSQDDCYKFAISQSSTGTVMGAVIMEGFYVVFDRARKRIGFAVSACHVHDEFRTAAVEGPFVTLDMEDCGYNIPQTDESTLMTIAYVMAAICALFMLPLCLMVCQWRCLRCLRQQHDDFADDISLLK
Sequence of Plasmepsin V (Plasmodium falciparum (isolate 3D7), UniProt Q8I6Z5) (Q8I6Z5 whole entry): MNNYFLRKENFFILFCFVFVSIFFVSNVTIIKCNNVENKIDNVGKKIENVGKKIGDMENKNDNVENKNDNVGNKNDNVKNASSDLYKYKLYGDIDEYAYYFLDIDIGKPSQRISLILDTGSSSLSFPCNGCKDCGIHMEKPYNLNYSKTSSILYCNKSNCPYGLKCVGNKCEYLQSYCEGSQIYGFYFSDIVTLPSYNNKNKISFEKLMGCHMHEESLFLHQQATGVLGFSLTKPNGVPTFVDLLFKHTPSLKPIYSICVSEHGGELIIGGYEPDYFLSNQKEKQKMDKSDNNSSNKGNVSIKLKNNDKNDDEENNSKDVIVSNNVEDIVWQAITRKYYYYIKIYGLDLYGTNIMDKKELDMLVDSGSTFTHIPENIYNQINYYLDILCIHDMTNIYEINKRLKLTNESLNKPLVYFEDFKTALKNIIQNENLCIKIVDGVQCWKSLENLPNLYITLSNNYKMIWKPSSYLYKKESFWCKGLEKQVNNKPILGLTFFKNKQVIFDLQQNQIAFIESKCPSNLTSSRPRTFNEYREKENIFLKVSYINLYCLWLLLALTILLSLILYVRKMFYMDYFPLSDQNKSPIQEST
Sequence of Plasmepsin V (Plasmodium falciparum (isolate 3D7)) (Q8I6Z5 whole entry, looked up): as the sequence (Q8I6Z5 whole entry) above
Sequence of Plasmepsin V (Plasmodium vivax) (A0A0H4FQ60 as listed by the source): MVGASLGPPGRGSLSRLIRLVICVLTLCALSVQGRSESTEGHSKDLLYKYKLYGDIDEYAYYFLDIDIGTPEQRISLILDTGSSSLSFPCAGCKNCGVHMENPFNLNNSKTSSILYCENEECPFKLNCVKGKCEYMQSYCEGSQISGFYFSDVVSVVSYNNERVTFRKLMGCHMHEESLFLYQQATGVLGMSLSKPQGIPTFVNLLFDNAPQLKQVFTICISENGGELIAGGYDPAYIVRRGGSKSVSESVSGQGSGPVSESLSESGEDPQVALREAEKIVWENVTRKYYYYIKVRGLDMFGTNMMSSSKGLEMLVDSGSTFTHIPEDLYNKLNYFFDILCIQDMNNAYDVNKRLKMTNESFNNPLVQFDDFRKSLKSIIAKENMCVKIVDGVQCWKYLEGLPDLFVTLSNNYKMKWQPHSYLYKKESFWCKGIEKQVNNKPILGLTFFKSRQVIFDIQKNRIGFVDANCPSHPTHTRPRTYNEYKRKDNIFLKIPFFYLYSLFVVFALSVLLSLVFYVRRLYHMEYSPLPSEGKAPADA
Sequence of Plasmepsin V (Plasmodium vivax, UniProt A0A0H4FQ60) (A0A0H4FQ60 whole entry): as the sequence (A0A0H4FQ60 as listed by the source) above

As a reminder, the EC50 is the concentration that produces a half-maximal response. For orientation: IC50 means the midpoint of a concentration-inhibition curve. As for `CC(C)C[C@H](NC(=O)[C@H](C)NC(=O)[C@H](CCCN)NC(=O)OCc1ccccc1)[C@@H](O)CC(=O)NC1CCCCC1`, the EC50 in the experiment with HepG2 and with Plasmodium falciparum was above 50 µM in each case. The IC50 at Beta-secretase 1 was above 100 µM; on Cathepsin D, above 100 µM; on Plasmepsin V [2], above 20000 nM. The Activity in [1] was 0.18 OD/mm2.
One may read the inhibition as the relative decrease from the control value, in per cent. For the molecule `CC(C)C[C@H](NC(=O)[C@H](C)NC(=O)[C@H](CCCNC(=N)N)NS(=O)(=O)c1ccccc1)[C@@H](O)CC(=O)NCCc1ccccc1`, the concentration for a half-maximal effect (EC50) in the experiment on HepG2 is above 50 µM; in the experiment with Plasmodium falciparum it was 16.3 µM. Also, the inhibition in experiment [3] turned out to be 78%. For the same molecule, the IC50 at Beta-secretase 1 is above 100 µM; at Cathepsin D, above 100 µM; at Plasmepsin V [2] it was 378 nM. The Activity in experiment [1] worked out at 0.31 OD/mm2.
With `CC(C)C[C@H](NC(=O)[C@H](CCCNC(=N)N)NC(=O)OCc1ccccc1)C(=O)N[C@@H](CC(C)C)[C@@H](O)CC(=O)NC1CCCCC1`, the values for the EC50 with HepG2 and in the experiment on Plasmodium falciparum were above 50 µM and 8.9 µM, respectively. The results for the IC50 on Beta-secretase 1, at Cathepsin D and on Plasmepsin V [2] were above 100 µM, 5.1 µM and 77 nM, respectively. In [1], the Activity was 0.26 OD/mm2.
Take `CC(C)C[C@H](NC(=O)[C@H](C)NC(=O)[C@H](CCCNC(=N)N)NC(=O)COCc1ccccc1)[C@@H](O)CC(=O)NCCc1ccccc1`: the figures for the 50% effective concentration (EC50) in the experiment with HepG2 and with Plasmodium falciparum were above 50 µM and 23 µM, respectively. Also, the inhibition in experiment [3] came out at 81%. Further, the IC50 is above 100 µM on Beta-secretase 1, above 100 µM on Cathepsin D and 550 nM on Plasmepsin V [2]. Also, the Activity in experiment [1] was found to be 0.16 OD/mm2.
For the molecule `CC(C)C[C@H](NC(=O)[C@H](C)NC(=O)[C@H](CCCNC(=N)N)NC(=O)OCc1ccccc1)[C@@H](O)CC(=O)NC1CCCCC1`, the EC50 with HepG2 was above 50 µM; in the experiment with Plasmodium falciparum, 34.6 µM. Moreover, in experiment [3], the inhibition was 54% and 51%. The IC50 is above 100 µM at Beta-secretase 1, above 100 µM at Cathepsin D and 614 nM on Plasmepsin V [2]. In addition, the Activity in experiment [1] was found to be 0.2 OD/mm2.
`CCN(CC)CCCC(C)Nc1ccnc2cc(Cl)ccc12` (stereo not drawn) [CHLOROQUINE]: the EC50 in the experiment on Plasmodium falciparum is 0.003 µM.
In the experiment on Plasmodium falciparum, `CC[C@H](C)[C@H](NC(=O)[C@H](CCCNC(=N)N)NC(=O)OCc1ccccc1)C(=O)N[C@@H](CC(C)C)[C@@H](O)CC(=O)NC1CCCCC1` gave an EC50 of 6.8 µM. Moreover, the IC50 at Beta-secretase 1 is above 100 µM; at Cathepsin D, 0.447 µM; on Plasmepsin V [2], 26 nM. Also, the Activity in experiment [1] came out at 0.53 OD/mm2.
With `CC(C)C[C@H](NC(=O)[C@@H](NC(=O)[C@H](CCCNC(=N)N)NS(=O)(=O)Cc1ccccc1)C(C)C)[C@@H](O)CC(=O)NCCc1ccccc1`, the EC50 with HepG2 was above 50 µM; in the experiment on Plasmodium falciparum, 2.5 µM. Moreover, the half-inhibitory concentration (IC50) on Beta-secretase 1 is above 100 µM; on Plasmepsin V [4], 24 nM; at Cathepsin D, 32 µM; on Plasmepsin V [2] it was 19 nM. Also, the Activity in [1] was 2.76 OD/mm2.
For `CC(C)C[C@H](NC(=O)[C@H](C)NC(=O)[C@H](CCCNC(=N)N)NC(=O)OCc1ccccc1)[C@@H](O)CC(=O)NCc1ccccc1` (Cbz-Arg-Ala-[Sta]-NHBn), in experiment [3], the inhibition is 60%. In addition, the values for the IC50 on Beta-secretase 1, at Cathepsin D and on Plasmepsin V [2] were above 100 µM, above 100 µM and 530 nM, respectively.
Take `CC(C)C[C@H](NC(=O)[C@H](C)NC(=O)[C@H](CCCNC(=N)N)NC(=O)OCc1ccccc1)[C@@H](O)CC(=O)NC(C)c1ccccc1` (mixture of isomers): the inhibition in experiment [3] worked out at 56%. In addition, the figures for the IC50 on Beta-secretase 1, at Cathepsin D and on Plasmepsin V [2] were above 100 µM, above 100 µM and 569 nM, respectively.
For the molecule `C[C@H](NC(=O)[C@H](CCCNC(=N)N)NC(=O)OCc1ccccc1)C(=O)N[C@@H](CC1CCCCC1)[C@@H](O)CC(=O)NC1CCCCC1`, the inhibition in experiment [5] is 35%. Besides, the IC50 on Plasmepsin V [2] was above 20000 nM.
In the case of `CC(C)C[C@H](NC(=O)[C@H](C)NC(=O)[C@H](CCCNC(=N)N)NS(=O)(=O)Cc1ccccc1)[C@@H](O)CC(=O)NCCc1ccccc1`, in experiment [3], the inhibition is 89%. For the same molecule, the IC50 on Beta-secretase 1 is above 100 µM; at Cathepsin D, above 100 µM; at Plasmepsin V [2], 625 nM.
As to `CC(C)C[C@H](NC(=O)[C@H](C)NC(=O)[C@H](CCCNC(=N)N)NC(=O)OCc1ccccc1)[C@@H](O)CC(=O)N(C)CCc1ccc(Cl)cc1`, in [3], the inhibition worked out at 20%. Also, the IC50 is above 100 µM at Beta-secretase 1, above 100 µM on Cathepsin D and 2010 nM on Plasmepsin V [2].
As for `CC(C)C[C@H](NC(=O)[C@H](C)NC(=O)[C@H](CCCNC(=N)N)NC(=O)OCc1ccccc1)[C@@H](O)CC(=O)NC1Cc2ccccc2C1`, in [3], the inhibition is 66%. The IC50 was above 100 µM on Beta-secretase 1, above 100 µM on Cathepsin D and 772 nM on Plasmepsin V [2].
Turning to `CC(C)C[C@H](NC(=O)[C@@H](NC(=O)[C@H](CCCNC(=N)N)NC(=O)OCc1ccccc1)C(C)C)[C@@H](O)CC(=O)NC1CCCCC1`, the results for the EC50 in the experiment on HepG2 and with Plasmodium falciparum were above 50 µM and 9.8 µM, respectively. Also, the IC50 is above 100 µM on Beta-secretase 1, 0.713 µM at Cathepsin D and 29 nM on Plasmepsin V [2]. The Activity in [1] was found to be 0.24 OD/mm2.
Turning to `CC(C)C[C@H](NC(=O)[C@H](C)NC(=O)[C@H](CCCNC(=N)N)NC(=O)OCc1ccccc1)[C@@H](O)CC(=O)NCCc1ccccc1` (Cbz-Arg-Ala-[Sta]-NHPhenethyl), the inhibition in experiment [3] turned out to be 79%. Also, the IC50 at Beta-secretase 1 is above 100 µM; on Cathepsin D, 29 µM; at Plasmepsin V [2], 622 nM.
